# Results from US20090042993A1, “IDENTIFICATION OF NOVEL POST-TRANSLATIONAL PROTEIN MODIFICATIONS” (priority 2007, published 2009).
# Tested on: BACE1
# Experiment: BACE1 lysine acetylation (immunoprecipitation, anti-acetylated lysine blot, LC-MS/MS mapping) in CHO cells
# Assay type: cell-based, human
# Description: Chinese Hamster Ovary (CHO) cells were grown in DMEM (Gibco BRL—Invitrogen, Carlsbad, Calif.) supplemented with 10% fetal bovine serum (FBS) and penicillin/streptomycin (Mediatech, Inc., Herndon, Va.) as described before (Puglielli et al., 2001, Nat. Cell Biol. 3: 905-912; Puglielli et al., 2003, J. Biol. Chem. 278: 19777-19783; Costantini et al., 2005, Biochem. J. 391: 59-67; Costantini et al., 2006, EMBO J. 25: 1997-2006). Cells were maintained in a humidified atmosphere with 5% CO2. For ceramide treatment, C6-ceramide (also simply called ceramide herein) was administered at the final concentration of 10 μM; treatment was started when cells were ˜30% confluent and carried out for 4 days, unless specified otherwise. Treatment with proteasome inhibitors MG-132 (5 μM) and lactacystin (10 μM) was done for 10 hours, as described earlier (Qing et al., 2004, FASEB J. 18: 1571-1573).
# For the immunoprecipitation of BACE1, cell lysates were pre-cleared with BioMag Protein A (Polysciences, Inc., Warrington, Pa.); beads were used at the concentration of 15 μl of the slurry per sample and separated with a magnetic holder. BACE1 was then immunoprecipitated with anti-BACE1 antibodies overnight and recovered with BioMag Protein A as above. The immunoprecipitate-bead complexes were washed 3 times in PBS and boiled for 10 min in SDS sample buffer (Invitrogen) with β-mercaptoethanol. Beads were then separated and the samples were analyzed by reducing SDS-PAGE.
# BACE1-myc was purified via affinity chromatography on a ProFound c-Myc-Tag IP/Co-IP kit (Pierce). Each BACE1 preparation was then precipitated by addition of 4 volumes of acetone, pelletted by centrifugation, washed, and vacuum-dried. […]
# A portion of each purified digest, corresponding to 10 μg of pre-digested protein, was analyzed by μLC-MS/MS using a Micromass Q-TOF2 spectrometer to locate acetylation sites. […] Charge dependent collision energy profiles were empirically pre-determined. […]
smiles,measurement,setting,value
"CCCCCCCCCCCCC/C=C/[C@@H](O)[C@H](CO)NC(=O)CCCCC [ceramide, C6-ceramide]",acetylation of BACE1Ala in vivo,CHO cells stably expressing BACE1Ala grown with ceramide,did not induce acetylation
same,number of acetylated lysine residues of BACE1,"MS/MS of tryptic digests, two residues acetylated prior to ceramide treatment",increased to seven
same,BACE1 acetylation,ceramide treatment of cells,stimulates BACE1 acetylation
